Laboratory results from patent publication US12673944B2, “Compounds having inhibitory activity against glucosylceramide synthase or pharmaceutically acceptable salt thereof, processes for preparing the same, and pharmaceutical compositions comprising the same” (YUHAN CORPORATION, priority 2019, dated 2026).

Assays:
[1] = biological target: T1, glucosylceramide synthase (GCS) (Homo sapiens, UniProt Q16739); experiment: GCS enzyme inhibition assay (A549 cell lysate, NBD C6-ceramide, HPLC fluorescence); format: biochemical; conditions: inhibitory activity against GCS, 37° C., 90 minutes
T1 construct: The obtained supernatant was used; host or cells: A549 cells (lysate supernatant after sonication)
T1 sequence (Q16739 1-394): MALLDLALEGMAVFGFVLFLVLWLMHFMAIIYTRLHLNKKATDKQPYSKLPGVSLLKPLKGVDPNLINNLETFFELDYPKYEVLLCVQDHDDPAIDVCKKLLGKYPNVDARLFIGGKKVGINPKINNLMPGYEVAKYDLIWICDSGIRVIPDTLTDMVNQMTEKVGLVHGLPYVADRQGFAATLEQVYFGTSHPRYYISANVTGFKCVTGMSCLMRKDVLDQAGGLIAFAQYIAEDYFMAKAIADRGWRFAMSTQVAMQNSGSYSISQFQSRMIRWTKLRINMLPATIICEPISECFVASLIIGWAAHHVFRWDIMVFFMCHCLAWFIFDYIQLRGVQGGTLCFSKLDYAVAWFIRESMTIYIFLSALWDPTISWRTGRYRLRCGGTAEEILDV
In short: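 Percent GCS activity was derived from the GlcCer share of Cer plus GlcCer areas, scaled from ibiglustat (0%) to DMSO (100%). Enzyme came from sonicated A549 lysate in 50 mM HEPES pH 7.3; 90 min incubation at 37° C, chloroform/methanol stop and extraction.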

[2] = test system: GM1 production in Jurkat cells; experiment: cells; format: cell-based; conditions: Homo sapiens, Jurkat, 72 h

| Compound | IC50 [1] [nM] | IC50 [2] [nM] |
| --- | --- | --- |
| O=C(NC1CCOc2cc(-c3ccc(N4CCOCC4)c(Cl)c3)ccc21)O[C@@H]1CN2CCC1CC2 (stereo partly drawn) [Example 76, (S)-quinuclidin-3-yl (7-(3-chloro-4-morpholinophenyl)chroman-4-yl)carbamate] | 1.94 | 29.2 |
| COCCOc1cccc(-c2ccc3c(c2)OCCC3NC(=O)O[C@@H]2CN3CCC2CC3)c1 (stereo partly drawn) [Example 8, (S)-quinuclidin-3-yl (7-(3-(2-methoxyethoxy)phenyl)chroman-4-yl)carbamate] | 0.48 | 3.59 |
| O=C(NC1CCOc2cc(-c3cccc(OC(F)(F)F)c3)ccc21)O[C@@H]1CN2CCC1CC2 (stereo partly drawn) [Example 4, (S)-quinuclidin-3-yl (7-(3-(trifluoromethoxy)phenyl)chroman-4-yl)carbamate] | 0.7 | 1.08 |
| O=C(NC1CCOc2cc(-c3ccc(N4CCOCC4)c(F)c3)ccc21)O[C@@H]1CN2CCC1CC2 (stereo partly drawn) [Example 77, (S)-quinuclidin-3-yl (7-(3-fluoro-4-morpholinophenyl)chroman-4-yl)carbamate] | 3.33 | 28.7 |
| COc1cccc(-c2ccc3c(c2)OCC(C)(C)C3NC(=O)O[C@@H]2CN3CCC2CC3)c1 (stereo partly drawn) [Example 166, (S)-quinuclidin-3-yl (7-(3-methoxyphenyl)-3,3-dimethylchroman-4-yl)carbamate] | 0.31 | 0.07 |
| C=Cc1ccc(-c2ccc3c(c2)OCC(C)(C)C3NC(=O)O[C@@H]2CN3CCC2CC3)cc1 (stereo partly drawn) [Example 272, (S)-quinuclidin-3-yl (3,3-dimethyl-7-(4-vinylphenyl)chroman-4-yl)carbamate] | 0.89 | 4.4 |
| CN(C)c1cccc(-c2ccc3c(c2)OCCC3NC(=O)O[C@@H]2CN3CCC2CC3)c1 (stereo partly drawn) [Example 41, (S)-quinuclidin-3-yl (7-(3-(dimethylamino)phenyl)chroman-4-yl)carbamate] | 0.52 | 0.45 |
| CCOc1c(C)cc(-c2ccc3c(c2)OCCC3(C)NC(=O)O[C@@H]2CN3CCC2CC3)cc1C (stereo partly drawn) [Example 308, (S)-quinuclidin-3-yl (7-(4-ethoxy-3,5-dimethylphenyl)-4-methylchroman-4-yl)carbamate] | 1.06 | 4.1 |
| O=C(NC1CCOc2cc(-c3cc(F)c(F)cc3F)ccc21)O[C@@H]1CN2CCC1CC2 (stereo partly drawn) [Example 31, (S)-quinuclidin-3-yl (7-(2,4,5-trifluorophenyl)chroman-4-yl)carbamate] | 3.26 | 27.6 |
| COc1cc2c(cc1-c1ccc(OC(C)C)c(Cl)c1)OCC(C)(C)C2NC(=O)O[C@@H]1CN2CCC1CC2 (stereo partly drawn) [Example 363, (S)-quinuclidin-3-yl (7-(3-chloro-4-isopropoxyphenyl)-6-methoxy-3,3-dimethylchroman-4-yl)carbamate] | 0.75 | 8.7 |
| COc1ccc(Cl)c(-c2ccc3c(c2)OCCC3NC(=O)O[C@@H]2CN3CCC2CC3)c1 (stereo partly drawn) [Example 65, (S)-quinuclidin-3-yl (7-(2-chloro-5-methoxyphenyl)chroman-4-yl)carbamate] | 0.22 | 1.18 |
| COc1cccc(-c2cc3c(cc2F)C(NC(=O)O[C@@H]2CN4CCC2CC4)C(C)(C)CO3)c1 (stereo partly drawn) [Example 335, (S)-quinuclidin-3-yl (6-fluoro-7-(3-methoxyphenyl)-3,3-dimethylchroman-4-yl)carbamate] | 0.35 | 2 |
| CCCCc1ccc(-c2cc3c(cc2F)C(NC(=O)O[C@@H]2CN4CCC2CC4)C(C)(C)CO3)cc1 (stereo partly drawn) [Example 343, (S)-quinuclidin-3-yl (7-(4-butylphenyl)-6-fluoro-3,3-dimethylchroman-4-yl)carbamate] | 0.12 | 0.1 |
| O=C(NC1CCSc2cc(-c3cccc(OC(F)(F)F)c3)ccc21)O[C@@H]1CN2CCC1CC2 (stereo partly drawn) [Example 320, (S)-quinuclidin-3-yl (7-(3-(trifluoromethoxy)phenyl)thiochroman-4-yl)carbamate] | 1.5 | 13.8 |
| C=Cc1cccc(-c2ccc3c(c2)OCC(C)(C)C3NC(=O)O[C@@H]2CN3CCC2CC3)c1 (stereo partly drawn) [Example 244, (S)-quinuclidin-3-yl (3,3-dimethyl-7-(3-vinylphenyl)chroman-4-yl)carbamate] | 0.42 | 0.6 |
| O=C(NC1CCSc2ccc(-c3ccc(Cl)cc3)cc21)O[C@@H]1CN2CCC1CC2 (stereo partly drawn) [Example 316, (S)-quinuclidin-3-yl (6-(4-chlorophenyl)thiochroman-4-yl)carbamate] | 36.5 | 251 |
| CC(C)Oc1ccc(-c2ccc3c(c2)OCC(C)(C)C3NC(=O)O[C@@H]2CN3CCC2CC3)cn1 (stereo partly drawn) [Example 258, (S)-quinuclidin-3-yl (7-(6-isopropoxypyridin-3-yl)-3,3-dimethylchroman-4-yl)carbamate] | 0.45 | 1 |

| Compound | IC50 [1] [nM] | IC50 [2] [nM] |
| --- | --- | --- |
| CC1(C)COc2cc(-c3ccc(F)c(Cl)c3)ccc2C1NC(=O)O[C@@H]1CN2CCC1CC2 (stereo partly drawn) [Example 236, (S)-quinuclidin-3-yl (7-(3-chloro-4-fluorophenyl)-3,3-dimethylchroman-4-yl)carbamate] | 0.75 | 3.6 |
| COc1cc(OC)cc(-c2ccc3c(c2)OCC(C)(C)C3NC(=O)O[C@@H]2CN3CCC2CC3)c1 (stereo partly drawn) [Example 114, (S)-quinuclidin-3-yl (7-(3,5-dimethoxyphenyl)-3,3-dimethylchroman-4-yl)carbamate] | 0.75 | 2.81 |
| COc1cccc(-c2ccc3c(c2)OCCC3NC(=O)O[C@@H]2CN3CCC2CC3)c1Cl (stereo partly drawn) [Example 67, (S)-quinuclidin-3-yl (7-(2-chloro-3-methoxyphenyl)chroman-4-yl)carbamate] | 0.93 | 11.3 |
| CC(C)c1cccc(-c2ccc3c(c2)OCCC3NC(=O)O[C@@H]2CN3CCC2CC3)c1 (stereo partly drawn) [Example 23, (S)-quinuclidin-3-yl (7-(3-isopropylphenyl)chroman-4-yl)carbamate] | 0.48 | 0.57 |
| COc1ccccc1-c1ccc2c(c1)OCCC2NC(=O)O[C@@H]1CN2CCC1CC2 (stereo partly drawn) [Example 17, (S)-quinuclidin-3-yl (7-(2-methoxyphenyl)chroman-4-yl)carbamate] | 1.41 | 5.5 |
| CC1(C)COc2cc(-c3cc(F)cc(F)c3)ccc2C1NC(=O)O[C@@H]1CN2CCC1CC2 (stereo partly drawn) [Example 240, (S)-quinuclidin-3-yl (7-(3,5-difluorophenyl)-3,3-dimethylchroman-4-yl)carbamate] | 0.92 | 5 |
| CC1(C)COc2cc(-c3ccc4ncccc4c3)ccc2C1NC(=O)O[C@@H]1CN2CCC1CC2 (stereo partly drawn) [Example 132, (S)-quinuclidin-3-yl (3,3-dimethyl-7-(quinolin-6-yl)chroman-4-yl)carbamate] | 1.55 | 8.95 |
| O=C(NC1CCOc2ccc(-c3ccccc3F)cc21)O[C@@H]1CN2CCC1CC2 (stereo partly drawn) [Example 87, (S)-quinuclidin-3-yl (6-(2-fluorophenyl)chroman-4-yl)carbamate] | 3.57 | 98.7 |
| Cc1cc(C)c(Cl)c(-c2ccc3c(c2)OCC(C)(C)C3NC(=O)O[C@@H]2CN3CCC2CC3)c1 (stereo partly drawn) [Example 285, (S)-quinuclidin-3-yl (7-(2-chloro-3,5-dimethylphenyl)-3,3-dimethylchroman-4-yl)carbamate] | 1.96 | 9.7 |
| CC1(C)COc2cc(-c3ccccc3OC(F)(F)F)ccc2C1NC(=O)O[C@@H]1CN2CCC1CC2 (stereo partly drawn) [Example 157, (S)-quinuclidin-3-yl (3,3-dimethyl-7-(2-(trifluoromethoxy)phenyl)chroman-4-yl)carbamate] | 0.48 | 0.12 |
| COc1ccc2cc(-c3ccc4c(c3)OCC(C)(C)C4NC(=O)O[C@@H]3CN4CCC3CC4)ccc2c1 (stereo partly drawn) [Example 145, (S)-quinuclidin-3-yl (7-(6-methoxynaphthalen-2-yl)-3,3-dimethylchroman-4-yl)carbamate] | 0.69 | 0.08 |
| COc1ccc(-c2ccc3c(c2)OCC(C)(C)C3NC(=O)O[C@@H]2CN3CCC2CC3)c(OC)n1 (stereo partly drawn) [Example 129, (S)-quinuclidin-3-yl (7-(2,6-dimethoxypyridin-3-yl)-3,3-dimethylchroman-4-yl)carbamate] | 1.15 | 4.56 |
| CC1(C)COc2cc(-c3cccc4[nH]ncc34)ccc2C1NC(=O)O[C@@H]1CN2CCC1CC2 (stereo partly drawn) [Example 212, (S)-quinuclidin-3-yl (7-(1H-indazol-4-yl)-3,3-dimethylchroman-4-yl)carbamate] | 0.87 | 2.45 |
| CC1(C)COc2cc(-c3ccccc3C#N)ccc2C1NC(=O)O[C@@H]1CN2CCC1CC2 (stereo partly drawn) [Example 189, (S)-quinuclidin-3-yl (7-(2-cyanophenyl)-3,3-dimethylchroman-4-yl)carbamate] | 0.36 | 0.04 |
| O=C(NC1CCOc2cc(-c3ccc4c(c3)COC4)ccc21)O[C@@H]1CN2CCC1CC2 (stereo partly drawn) [Example 61, (S)-quinuclidin-3-yl (7-(1,3-dihydroisobenzofuran-5-yl)chroman-4-yl)carbamate] | 1.36 | 40.1 |
| CC1(C)COc2cc(-c3cccc(F)c3)ccc2C1NC(=O)O[C@@H]1CN2CCC1CC2 (stereo partly drawn) [Example 102, (S)-quinuclidin-3-yl (7-(3-fluorophenyl)-3,3-dimethylchroman-4-yl)carbamate] | 0.8 | 2.81 |
